Biological target: T1, ALDH7A1 (Homo sapiens, UniProt P49419)
T1 construct: endogenous protein in heat-pretreated (44 °C) Huh-7 cells; CETSA on total protein extract, detected by Western blot
T1 sequence (P49419 27-539): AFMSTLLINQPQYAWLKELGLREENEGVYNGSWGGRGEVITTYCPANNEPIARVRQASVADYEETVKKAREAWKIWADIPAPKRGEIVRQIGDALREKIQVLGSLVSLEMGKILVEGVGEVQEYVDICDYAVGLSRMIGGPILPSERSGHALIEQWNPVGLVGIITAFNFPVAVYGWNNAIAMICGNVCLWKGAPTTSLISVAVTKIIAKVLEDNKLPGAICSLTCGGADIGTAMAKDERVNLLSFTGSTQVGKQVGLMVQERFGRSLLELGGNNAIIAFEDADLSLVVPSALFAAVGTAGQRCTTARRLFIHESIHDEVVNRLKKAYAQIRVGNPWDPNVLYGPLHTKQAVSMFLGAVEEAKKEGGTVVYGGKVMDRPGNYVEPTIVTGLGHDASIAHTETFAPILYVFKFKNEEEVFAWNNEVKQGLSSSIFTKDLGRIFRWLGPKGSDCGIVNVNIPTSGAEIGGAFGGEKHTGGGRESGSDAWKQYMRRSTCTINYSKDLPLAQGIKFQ
Assay: CETSA, Western blot
Type: cell-based
Conditions: 0, 4, 8 µM for 24 h in cells, extract then heated at 63 °C for 5 min; heat-pretreated Huh-7 cells

Cc1coc2c1C(=O)C(=O)c1c-2ccc2c1CCCC2(C)C [Tan IIA]
CETSA, Western blot: CETSA results showed that the binding of Tan IIA to ALDH7A1 was concentration-dependent

From paper PMC12579247, “Tanshinone IIA inhibits heat-induced growth of p53-mutant Huh-7 hepatocellular carcinoma by modulating osmotic homeostasis and glycolysis through targeting ALDH7A1” (Cell Death Discovery, 2025)
